According to ChEMBL document CHEMBL4804281, “STK4 inhibitors for treatment of hematologic malignancies” (2020):
Activity calls are given as the source filed them. The rule behind the calls is not given here.

Columns and labels:
[1] = target: Microtubule-associated serine/threonine-protein kinase 1 (Homo sapiens) (UniProt Q9Y2H9); experiment: Inhibition of MAST1 in human NCI-H929 cells at 10 uM by mass spectroscopic analysis relative to control; assay type: cell-based
[2] = target: Aurora kinase A (Homo sapiens) (UniProt O14965); experiment: Inhibition of AURA in human NCI-H929 cells at 10 uM by mass spectroscopic analysis relative to control; assay type: cell-based
[3] = target: Activin receptor type-1C (Homo sapiens) (UniProt Q8NER5); experiment: Inhibition of ALK7 in human NCI-H929 cells at 10 uM by mass spectroscopic analysis relative to control; assay type: cell-based
[4] = target: Interleukin-1 receptor-associated kinase 1 (Homo sapiens) (UniProt P51617); experiment: Inhibition of IRAK1 in human NCI-H929 cells at 10 uM by mass spectroscopic analysis relative to control; assay type: cell-based
[5] = target: STE20-like serine/threonine-protein kinase (Homo sapiens) (UniProt Q9H2G2); experiment: Inhibition of SLK in human NCI-H929 cells at 10 uM by mass spectroscopic analysis relative to control; assay type: cell-based
[6] = target: Serine/threonine-protein kinase D2 (Homo sapiens) (UniProt Q9BZL6); experiment: Inhibition of PKD2 in human NCI-H929 cells at 10 uM by mass spectroscopic analysis relative to control; assay type: cell-based
[7] = target: NUAK family SNF1-like kinase 2 (Homo sapiens) (UniProt Q9H093); experiment: Inhibition of NuaK2 in human NCI-H929 cells at 10 uM by mass spectroscopic analysis relative to control; assay type: cell-based
[8] = target: Glycogen synthase kinase-3 beta (Homo sapiens) (UniProt P49841); experiment: Inhibition of GSK3B in human NCI-H929 cells at 10 uM by mass spectroscopic analysis relative to control; assay type: cell-based
[9] = target: Activin receptor type-1 (Homo sapiens) (UniProt Q04771); experiment: Inhibition of ALK2 in human NCI-H929 cells at 10 uM by mass spectroscopic analysis relative to control; assay type: cell-based
[10] = target: Activin receptor type-1B (Homo sapiens) (UniProt P36896); experiment: Inhibition of ALK4 in human NCI-H929 cells at 10 uM by mass spectroscopic analysis relative to control; assay type: cell-based
[11] = target: Calcium/calmodulin-dependent protein kinase kinase 2 (Homo sapiens) (UniProt Q96RR4); experiment: Inhibition of CAMKK2 in human NCI-H929 cells at 10 uM by mass spectroscopic analysis relative to control; assay type: cell-based
[12] = target: Serine/threonine-protein kinase D3 (Homo sapiens) (UniProt O94806); experiment: Inhibition of PKD3 in human NCI-H929 cells at 10 uM by mass spectroscopic analysis relative to control; assay type: cell-based
[13] = target: Mitogen-activated protein kinase kinase kinase kinase 5 (Homo sapiens) (UniProt Q9Y4K4); experiment: Inhibition of KHS1 in human NCI-H929 cells at 10 uM by mass spectroscopic analysis relative to control; assay type: cell-based
[14] = target: Serine/threonine-protein kinase 10 (Homo sapiens) (UniProt O94804); experiment: Inhibition of LOK in human NCI-H929 cells at 10 uM by mass spectroscopic analysis relative to control; assay type: cell-based
[15] = target: Casein kinase I isoform gamma-2 (Homo sapiens) (UniProt P78368); experiment: Inhibition of CK1g2 in human NCI-H929 cells at 10 uM by mass spectroscopic analysis relative to control; assay type: cell-based
[16] = target: Mitogen-activated protein kinase kinase kinase kinase 1 (Homo sapiens) (UniProt Q92918); experiment: Inhibition of HPK1 in human NCI-H929 cells at 10 uM by mass spectroscopic analysis relative to control; assay type: cell-based
[17] = target: Serine/threonine-protein kinase 24 (Homo sapiens) (UniProt Q9Y6E0); experiment: Inhibition of MST3 in human NCI-H929 cells at 10 uM by mass spectroscopic analysis relative to control; assay type: cell-based
[18] = target: Serine/threonine-protein kinase SMG1 (Homo sapiens) (UniProt Q96Q15); experiment: Inhibition of SMG1 in human NCI-H929 cells at 10 uM by mass spectroscopic analysis relative to control; assay type: cell-based
[19] = target: T1, NUAK family SNF1-like kinase 1 (Homo sapiens) (UniProt O60285); experiment: Inhibition of NuaK1 in human NCI-H929 cells at 10 uM by mass spectroscopic analysis relative to control; assay type: cell-based
T1 sequence (whole entry): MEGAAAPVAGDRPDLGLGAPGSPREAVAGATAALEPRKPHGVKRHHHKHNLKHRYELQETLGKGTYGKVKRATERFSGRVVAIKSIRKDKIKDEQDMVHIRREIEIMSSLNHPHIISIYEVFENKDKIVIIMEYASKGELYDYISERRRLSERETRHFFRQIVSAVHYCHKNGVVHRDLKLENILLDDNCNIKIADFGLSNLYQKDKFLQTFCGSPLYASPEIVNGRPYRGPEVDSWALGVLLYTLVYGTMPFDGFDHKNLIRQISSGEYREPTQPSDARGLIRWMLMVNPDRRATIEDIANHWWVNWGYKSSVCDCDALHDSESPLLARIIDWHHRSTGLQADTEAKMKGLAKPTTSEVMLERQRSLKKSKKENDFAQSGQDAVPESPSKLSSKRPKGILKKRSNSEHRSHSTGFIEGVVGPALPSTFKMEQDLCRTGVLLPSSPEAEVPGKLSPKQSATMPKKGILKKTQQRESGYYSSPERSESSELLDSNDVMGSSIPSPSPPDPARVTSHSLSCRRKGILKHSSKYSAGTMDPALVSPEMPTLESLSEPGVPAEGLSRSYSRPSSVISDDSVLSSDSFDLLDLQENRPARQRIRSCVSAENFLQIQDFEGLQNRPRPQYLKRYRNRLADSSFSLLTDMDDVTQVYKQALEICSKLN

[20] = target: Dual specificity protein kinase CLK2 (Homo sapiens) (UniProt P49760); experiment: Inhibition of CLK2 in human NCI-H929 cells at 10 uM by mass spectroscopic analysis relative to control; assay type: cell-based
[21] = target: Ribosomal protein S6 kinase alpha-1 (Homo sapiens) (UniProt Q15418); experiment: Inhibition of RSK1 domain 1 in human NCI-H929 cells at 10 uM by mass spectroscopic analysis relative to control; assay type: cell-based
[22] = target: Casein kinase I isoform delta (Homo sapiens) (UniProt P48730); experiment: Inhibition of CK1d in human NCI-H929 cells at 10 uM by mass spectroscopic analysis relative to control; assay type: cell-based
[23] = target: Casein kinase I isoform epsilon (Homo sapiens) (UniProt P49674); experiment: Inhibition of CK1e in human NCI-H929 cells at 10 uM by mass spectroscopic analysis relative to control; assay type: cell-based
[24] = system: NCI-H929; experiment: Upregulation of YAP1 protein level in human NCI-H929 cells at 3 to 10 uM measured after 72 hrs by Western blot analysis; assay type: functional, cell-based; conditions: dose 3-10 µM
[25] = system: MM1.S; experiment: Upregulation of YAP1 protein level in human MM1.S cells at 3 to 10 uM measured after 72 hrs by Western blot analysis; assay type: functional, cell-based; conditions: dose 3-10 µM
[26] = target: Mitogen-activated protein kinase kinase kinase 3 (Homo sapiens) (UniProt Q99759); experiment: Inhibition of MAP3K3 in human NCI-H929 cells at 10 uM by mass spectroscopic analysis relative to control; assay type: cell-based

Chain of Calcium/calmodulin-dependent protein kinase kinase 2 (Homo sapiens) (Q96RR4 2-588 limits assumed): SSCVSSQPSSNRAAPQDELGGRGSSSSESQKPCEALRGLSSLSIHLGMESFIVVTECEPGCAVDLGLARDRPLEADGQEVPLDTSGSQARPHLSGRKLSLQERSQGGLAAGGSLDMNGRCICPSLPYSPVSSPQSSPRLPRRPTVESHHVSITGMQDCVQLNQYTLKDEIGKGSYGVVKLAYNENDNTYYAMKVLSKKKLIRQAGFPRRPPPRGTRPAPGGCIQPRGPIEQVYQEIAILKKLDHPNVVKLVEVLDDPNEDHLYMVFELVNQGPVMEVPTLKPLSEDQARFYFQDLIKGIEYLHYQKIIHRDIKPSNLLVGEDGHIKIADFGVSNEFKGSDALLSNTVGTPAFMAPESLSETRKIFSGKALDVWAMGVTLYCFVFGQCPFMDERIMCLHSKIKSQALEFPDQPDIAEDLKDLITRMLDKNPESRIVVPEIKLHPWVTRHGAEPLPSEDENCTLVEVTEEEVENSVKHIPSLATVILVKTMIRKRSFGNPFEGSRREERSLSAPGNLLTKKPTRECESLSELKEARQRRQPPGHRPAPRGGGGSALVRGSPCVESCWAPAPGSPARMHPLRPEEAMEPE
Chain of Microtubule-associated serine/threonine-protein kinase 1 (Homo sapiens) (Q9Y2H9 whole entry, looked up): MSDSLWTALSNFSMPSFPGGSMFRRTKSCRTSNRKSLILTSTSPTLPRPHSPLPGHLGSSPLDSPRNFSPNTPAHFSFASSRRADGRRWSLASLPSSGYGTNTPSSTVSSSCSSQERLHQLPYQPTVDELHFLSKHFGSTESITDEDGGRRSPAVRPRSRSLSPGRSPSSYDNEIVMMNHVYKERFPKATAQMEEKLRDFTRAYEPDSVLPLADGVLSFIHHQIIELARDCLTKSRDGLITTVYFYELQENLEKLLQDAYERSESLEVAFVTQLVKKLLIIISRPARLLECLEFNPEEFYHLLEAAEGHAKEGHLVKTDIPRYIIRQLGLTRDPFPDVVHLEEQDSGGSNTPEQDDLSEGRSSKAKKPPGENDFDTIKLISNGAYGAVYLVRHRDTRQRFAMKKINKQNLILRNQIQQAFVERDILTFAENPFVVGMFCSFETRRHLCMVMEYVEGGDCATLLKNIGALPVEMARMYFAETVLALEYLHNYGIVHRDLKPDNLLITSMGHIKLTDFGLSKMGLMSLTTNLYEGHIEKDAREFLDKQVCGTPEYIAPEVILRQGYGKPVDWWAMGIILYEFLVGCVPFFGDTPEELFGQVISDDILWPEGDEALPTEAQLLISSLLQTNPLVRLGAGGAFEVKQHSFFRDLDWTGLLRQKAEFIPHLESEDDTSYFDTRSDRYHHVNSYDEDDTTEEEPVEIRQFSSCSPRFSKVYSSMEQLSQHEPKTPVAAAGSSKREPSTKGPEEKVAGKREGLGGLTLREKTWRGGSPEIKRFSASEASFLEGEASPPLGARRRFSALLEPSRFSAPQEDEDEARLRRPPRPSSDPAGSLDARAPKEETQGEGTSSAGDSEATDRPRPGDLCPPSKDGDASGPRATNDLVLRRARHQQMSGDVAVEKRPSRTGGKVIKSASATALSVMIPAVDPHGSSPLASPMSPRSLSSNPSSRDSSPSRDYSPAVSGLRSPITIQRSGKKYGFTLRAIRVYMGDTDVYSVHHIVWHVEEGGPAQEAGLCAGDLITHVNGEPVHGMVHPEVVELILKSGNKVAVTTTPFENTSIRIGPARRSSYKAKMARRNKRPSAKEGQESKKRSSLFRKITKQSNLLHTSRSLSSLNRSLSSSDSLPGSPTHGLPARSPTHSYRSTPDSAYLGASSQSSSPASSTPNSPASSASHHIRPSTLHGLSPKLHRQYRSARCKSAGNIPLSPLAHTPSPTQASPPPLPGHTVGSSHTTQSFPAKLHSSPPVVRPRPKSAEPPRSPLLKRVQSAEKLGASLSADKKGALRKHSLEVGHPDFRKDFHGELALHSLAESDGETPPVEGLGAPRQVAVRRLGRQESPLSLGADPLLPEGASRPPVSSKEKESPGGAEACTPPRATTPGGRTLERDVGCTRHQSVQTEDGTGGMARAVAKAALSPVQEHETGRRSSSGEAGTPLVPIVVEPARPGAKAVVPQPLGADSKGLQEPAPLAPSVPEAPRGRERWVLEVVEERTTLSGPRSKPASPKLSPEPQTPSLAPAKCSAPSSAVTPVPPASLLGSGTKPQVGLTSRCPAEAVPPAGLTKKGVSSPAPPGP
Chain of Dual specificity protein kinase CLK2 (Homo sapiens) (P49760 whole entry, looked up, the tested form may be a part): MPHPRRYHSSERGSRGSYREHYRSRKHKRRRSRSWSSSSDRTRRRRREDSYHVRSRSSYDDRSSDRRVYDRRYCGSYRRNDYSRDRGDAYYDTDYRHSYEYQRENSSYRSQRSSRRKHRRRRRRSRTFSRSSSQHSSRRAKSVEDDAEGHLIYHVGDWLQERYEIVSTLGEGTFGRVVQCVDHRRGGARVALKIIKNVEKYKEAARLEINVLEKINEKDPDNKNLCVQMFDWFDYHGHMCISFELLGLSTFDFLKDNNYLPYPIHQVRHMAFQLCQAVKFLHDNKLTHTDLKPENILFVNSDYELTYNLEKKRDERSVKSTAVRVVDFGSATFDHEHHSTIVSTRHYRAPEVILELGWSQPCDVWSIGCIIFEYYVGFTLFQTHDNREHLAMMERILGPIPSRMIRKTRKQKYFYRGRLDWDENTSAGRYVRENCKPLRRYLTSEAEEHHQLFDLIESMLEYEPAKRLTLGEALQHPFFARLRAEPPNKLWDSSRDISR
Chain of NUAK family SNF1-like kinase 2 (Homo sapiens) (Q9H093 whole entry): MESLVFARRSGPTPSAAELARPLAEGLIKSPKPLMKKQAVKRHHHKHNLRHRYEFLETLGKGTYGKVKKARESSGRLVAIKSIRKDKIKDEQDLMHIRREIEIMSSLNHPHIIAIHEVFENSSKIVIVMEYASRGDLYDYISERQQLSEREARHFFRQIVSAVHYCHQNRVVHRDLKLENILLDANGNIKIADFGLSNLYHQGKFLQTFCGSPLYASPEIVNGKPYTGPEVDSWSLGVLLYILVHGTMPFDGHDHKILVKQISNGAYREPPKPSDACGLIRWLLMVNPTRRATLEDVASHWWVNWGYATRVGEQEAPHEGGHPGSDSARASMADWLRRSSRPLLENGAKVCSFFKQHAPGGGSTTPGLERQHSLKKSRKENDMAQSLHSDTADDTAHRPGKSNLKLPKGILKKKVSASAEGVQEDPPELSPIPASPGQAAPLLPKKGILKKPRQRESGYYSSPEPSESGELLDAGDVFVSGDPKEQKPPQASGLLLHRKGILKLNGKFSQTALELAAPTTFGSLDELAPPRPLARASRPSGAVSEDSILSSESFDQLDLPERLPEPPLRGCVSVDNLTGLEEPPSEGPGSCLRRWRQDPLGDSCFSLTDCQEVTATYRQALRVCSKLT
Chain of Activin receptor type-1 (Homo sapiens) (Q04771 whole entry): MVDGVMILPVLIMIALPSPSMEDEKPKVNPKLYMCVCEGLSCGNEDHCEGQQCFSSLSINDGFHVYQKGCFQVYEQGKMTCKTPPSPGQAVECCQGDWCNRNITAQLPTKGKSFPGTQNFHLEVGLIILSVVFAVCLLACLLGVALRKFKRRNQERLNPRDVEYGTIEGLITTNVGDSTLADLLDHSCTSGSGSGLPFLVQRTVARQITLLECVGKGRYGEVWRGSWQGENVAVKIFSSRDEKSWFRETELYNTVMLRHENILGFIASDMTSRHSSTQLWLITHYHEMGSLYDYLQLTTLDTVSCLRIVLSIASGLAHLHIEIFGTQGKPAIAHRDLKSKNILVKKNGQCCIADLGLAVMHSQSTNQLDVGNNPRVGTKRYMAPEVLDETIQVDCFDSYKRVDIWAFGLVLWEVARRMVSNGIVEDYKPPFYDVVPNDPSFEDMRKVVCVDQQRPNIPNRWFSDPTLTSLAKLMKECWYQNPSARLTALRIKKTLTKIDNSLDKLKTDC
Chain of Interleukin-1 receptor-associated kinase 1 (Homo sapiens) (P51617 whole entry, looked up): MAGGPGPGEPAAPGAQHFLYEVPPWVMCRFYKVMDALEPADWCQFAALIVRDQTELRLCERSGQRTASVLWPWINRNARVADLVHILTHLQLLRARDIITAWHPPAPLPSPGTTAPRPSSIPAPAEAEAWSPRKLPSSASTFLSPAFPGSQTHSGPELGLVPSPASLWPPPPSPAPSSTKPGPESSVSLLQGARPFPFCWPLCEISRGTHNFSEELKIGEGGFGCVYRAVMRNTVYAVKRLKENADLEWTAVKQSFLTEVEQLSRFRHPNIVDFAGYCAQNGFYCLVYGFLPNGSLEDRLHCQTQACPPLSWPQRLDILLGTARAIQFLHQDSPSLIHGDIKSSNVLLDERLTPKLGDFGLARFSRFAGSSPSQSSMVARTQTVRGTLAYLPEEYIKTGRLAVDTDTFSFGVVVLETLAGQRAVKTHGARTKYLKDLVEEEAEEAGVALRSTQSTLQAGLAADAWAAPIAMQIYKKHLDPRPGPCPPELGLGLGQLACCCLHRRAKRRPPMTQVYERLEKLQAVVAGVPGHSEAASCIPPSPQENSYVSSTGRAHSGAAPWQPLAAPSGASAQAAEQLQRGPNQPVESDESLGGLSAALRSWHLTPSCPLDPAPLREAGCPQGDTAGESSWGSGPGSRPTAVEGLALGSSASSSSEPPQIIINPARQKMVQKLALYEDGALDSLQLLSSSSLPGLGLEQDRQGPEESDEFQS
Chain of Serine/threonine-protein kinase 24 (Homo sapiens) (Q9Y6E0 whole entry, looked up): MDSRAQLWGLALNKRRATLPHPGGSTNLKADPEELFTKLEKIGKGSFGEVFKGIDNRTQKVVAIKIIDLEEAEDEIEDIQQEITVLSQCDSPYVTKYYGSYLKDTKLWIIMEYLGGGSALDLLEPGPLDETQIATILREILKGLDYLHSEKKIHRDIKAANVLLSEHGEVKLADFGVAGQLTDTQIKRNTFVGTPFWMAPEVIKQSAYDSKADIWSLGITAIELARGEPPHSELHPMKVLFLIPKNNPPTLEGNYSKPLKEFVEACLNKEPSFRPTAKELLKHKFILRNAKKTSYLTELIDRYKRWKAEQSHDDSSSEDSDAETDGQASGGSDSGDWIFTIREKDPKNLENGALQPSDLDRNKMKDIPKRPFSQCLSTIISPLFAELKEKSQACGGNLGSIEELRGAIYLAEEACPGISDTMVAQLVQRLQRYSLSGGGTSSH

inhibition [1] [%] | inhibition [2] [%] | inhibition [3] [%] | inhibition [4] [%] | inhibition [5] [%] | inhibition [6] [%] | inhibition [7] [%] | inhibition [9] [%] | inhibition [10] [%] | inhibition [11] [%] | inhibition [12] [%] | inhibition [13] [%] | inhibition [14] [%] | inhibition [15] [%] | inhibition [16] [%] | inhibition [17] [%] | inhibition [18] [%] | inhibition [19] [%] | inhibition [20] [%] | inhibition [21] [%] | SMILES | further results
0 | – | 75 | 0 | 50 | 50 | 0 | 75 | 75 | 0 | 0 | 0 | 0 | 75 | 0 | – | – | – | – | – | COc1cc(NS(=O)(=O)C2CC2)ccc1-c1cnc(N)c(-c2ccc3c(c2)CCNC3=O)c1 | inhibition [8]: > 90%
0 | – | > 90 | – | – | – | – | > 90 | > 90 | – | – | 50 | – | 50 | – | > 90 | 50 | 50 | 50 | < 75 | Nc1ncc(-c2ccc(NS(=O)(=O)C3CC3)cc2OC2CCCCC2)cc1-c1ccc2c(c1)CCNC2=O | –

Continued, compound first:

SMILES | inhibition [1] [%] | inhibition [2] [%] | inhibition [3] [%] | inhibition [4] [%] | inhibition [5] [%] | inhibition [6] [%] | inhibition [7] [%] | inhibition [9] [%] | inhibition [10] [%] | inhibition [11] [%] | inhibition [12] [%] | inhibition [13] [%] | inhibition [14] [%] | inhibition [15] [%] | inhibition [16] [%] | inhibition [17] [%] | inhibition [18] [%] | inhibition [19] [%] | inhibition [20] [%] | inhibition [21] [%] | further results
Nc1ncc(-c2ccc(NS(=O)(=O)C3CC3)cc2F)cc1-c1ccc2c(c1)CCNC2=O | 0 | < 75 | – | – | – | – | – | – | – | – | – | – | – | – | – | – | – | – | – | – | –
Nc1ncc(-c2cccc([N+](=O)[O-])c2F)cc1-c1ccc2c(c1)CCNC2=O | – | < 90 | – | – | – | – | – | – | – | – | – | – | – | – | – | – | – | – | 0 | < 75 | inhibition [22]: > 90%; inhibition [23]: > 90%; Activity [24]: inactive; Activity [25]: inactive
Nc1ncc(-c2cccc3ncsc23)cc1-c1ccc2c(c1)CCNC2=O | – | – | – | – | – | 50 | 50 | – | – | 50 | 50 | – | 50 | – | 50 | – | 50 | < 90 | – | – | inhibition [26]: 0%
CN(C1CC1)S(=O)(=O)c1ccc(-c2cnc(N)c(-c3ccc4c(c3)CCNC4=O)c2)c(F)c1 | – | – | – | 50 | 50 | – | – | – | – | 50 | – | – | – | – | – | 50 | – | 50 | – | – | inhibition [22]: 50%; inhibition [23]: 50%; inhibition [26]: 0%
